The results in this text go back to patent US20090069315A1, “Use of Pyrazolo(1,5A)Pyrimidin-7-YL Amine Derivatives in the Treatment of Neurological Disorders” (priority 2006, published 2009).

For series [1], the target named is T1, EphA4 (Mus musculus, UniProt Q03137). The series is described as follows: Proof of mechanism: EphA4 phosphorylation in mouse brain after dosing. Type of series: in vivo. Also on record: from tissue; host or cells: brain of male NMRI mice. The note with it: male NMRI mice, 10 mg/kg; for crossing of the blood brain barrier: inferred from block of brain EphA4 phosphorylation; for EphA4 phosphorylation in vivo in mouse brain: i.v., sacrificed 25 minutes or 1 hour after dosing, FIG. 4. As for the experimental part: Animals were given an i.v dose of relevant compound and sacrificed 25 minutes or 1 hour after dosing (0.25 h or 1 h), the brains removed and subjected to EphA4 immunoprecipitation followed by a phospho-tyrosine Western blot. Four animals were used as controls and three-animals each were used per time point for each drug. From top to bottom, the compounds tested were Compound 1, Compound 7, and Compound 6.
T1 sequence (Q03137 20-986): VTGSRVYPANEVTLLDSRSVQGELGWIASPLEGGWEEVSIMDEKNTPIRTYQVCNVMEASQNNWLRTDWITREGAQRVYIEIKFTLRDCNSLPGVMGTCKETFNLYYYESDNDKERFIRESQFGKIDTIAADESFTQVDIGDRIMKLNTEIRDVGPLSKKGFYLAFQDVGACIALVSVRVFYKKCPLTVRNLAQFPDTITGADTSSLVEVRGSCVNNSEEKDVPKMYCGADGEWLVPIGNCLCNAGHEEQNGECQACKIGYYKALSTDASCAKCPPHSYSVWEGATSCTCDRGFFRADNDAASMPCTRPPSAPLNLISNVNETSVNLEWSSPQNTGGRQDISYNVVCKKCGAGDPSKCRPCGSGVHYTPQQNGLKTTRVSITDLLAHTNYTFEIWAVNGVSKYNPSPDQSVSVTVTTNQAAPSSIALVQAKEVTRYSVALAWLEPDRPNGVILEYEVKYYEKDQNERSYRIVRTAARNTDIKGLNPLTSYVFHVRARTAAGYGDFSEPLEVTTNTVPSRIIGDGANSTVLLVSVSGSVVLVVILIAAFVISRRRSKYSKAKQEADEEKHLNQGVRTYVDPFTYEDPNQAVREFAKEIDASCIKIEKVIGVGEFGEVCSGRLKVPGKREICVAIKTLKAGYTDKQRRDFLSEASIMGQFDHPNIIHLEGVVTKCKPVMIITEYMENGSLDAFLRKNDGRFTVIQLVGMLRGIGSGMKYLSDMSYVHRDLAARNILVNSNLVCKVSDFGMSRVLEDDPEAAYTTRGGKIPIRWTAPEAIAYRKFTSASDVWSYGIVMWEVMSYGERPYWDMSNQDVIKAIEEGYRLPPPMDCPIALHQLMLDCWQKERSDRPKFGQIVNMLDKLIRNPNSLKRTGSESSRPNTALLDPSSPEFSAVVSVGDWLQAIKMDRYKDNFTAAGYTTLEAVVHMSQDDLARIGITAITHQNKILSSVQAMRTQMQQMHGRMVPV
Male NMRI mice were injected with relevant compounds at a dose of 10 mg/kg body weight and were sacrificed either 25 minutes or 1 hour following the dosing (0.25 h or 1 h shown in FIG. 4). The brains were removed and one half of each brain was weighed and homogenized in appropriate volume of lysis buffer for 30 seconds (10 seconds pulse and 10 seconds off—3 times). The homogenate was spun at 12,000 g for 30 minutes. Protein amounts were estimated for supernatants (using BCA) and equal amounts of protein for each condition were subjected to EphA4 immunoprecipitation followed by a phospho-tyrosine western blot. Four control animals were used and three experimental animals per time point were used for each of the compounds tested (Compounds 1, 2, 6, and 7)

Series [2] deals with embryonic cortical neurons. Briefly: In vitro assay for neurite outgrowth/axon regeneration: E16 cortical neurons on astrocyte monolayers. Format: cell-based. The note with it: 100 nM; immunofluorescence images, FIG. 2A. As for the experimental part: This assay is used to assess neurite outgrowth inhibition of embryonic cortical neurons by Eph receptors expressed on astrocytes or neurite outgrowth inhibition of post-natal cortical neurons by ephrin ligand present in myelin. E16 (embryonic day 16) cortical neurons are plated onto confluent astrocyte monolayers plated in 4-well chamber slides. Pharmacological inhibitors, are added to the medium and the length of longest neurite from each neuron is measured under each condition (FIG. 2A depicts an example of neurons plated in the presence of Compound 1 and visualized with the neuronal marker, Tuj-1) and compared to average neurite length on astrocytes in the absence of any pharmacological agents. FIG. 2B depicts the quantitation of neurite outgrowth effects observed with Compound 6 and Compound 7 (all tested at 100 nM concentration) in cortical cultures plated on astrocytes.

Series [3] has as its target T1, EphA4. The series is described as follows: EphA4 autophosphorylation assay in primary astrocyte cultures (EphA4 immunoprecipitation, phospho-tyrosine Western). Format: cell-based. Also on record: Primary astrocyte cultures are established from neonatal mouse cortex; endogenous in cells; host or cells: primary astrocytes from neonatal mouse cortex. The settings on record: cells pre-treated with 100 nM; FIG. 1A. How it is done:
FIG. 1A, lanes and 2 represent samples from cells treated with either control IgG-Fc or with the ligand ephrinB3-Fc. […] represent samples from cells that have been pre-treated with Compound 1 (100 nM) and are then stimulated with IgG-Fc or ephrinB3-Fc in the combined presence of the inhibitor (Compound I)(lanes 3, 4) or in its absence (lanes 5, 6). FIG. 1B, lanes 1 and 2 show EphA4 phosphorylation in control (untreated) and ephrinB3-Fc stimulated cells following serum starvation. All other lanes represent samples from cells stimulated with ephrinB3-Fc in the presence of varying concentrations (as indicated) of tested Eph inhibitors.
Primary astrocyte cultures are established from neonatal mouse cortex and purified so as to get about 95-98 pure astrocyte cultures. […] Cells are lysed, and the lysates subjected to EphA4 immunoprecipitation and subsequently analysed on Westerns for level of receptor phosphorylation using a phospho-tyrosine antibody.

The subject of a further series is astrocytes. Briefly: In vitro assay for astrogliosis: astrocyte scratch wound (cytokine-induced migration). Format: cell-based, mouse. The settings on record: relative distance of cell migration compared to control; FIG. 3. How it is done:
The white bar represents the addition of Compound 6. The black bar represents no compounds added.
Assay Astrocytes are prepared from the cerebral cortex of neonatal C57BL/6 mice (P1-P2). Cells are maintained in Dulbecco's modified Eagle's medium with 10% FBS. 4-7 weeks old astrocytes are plated to confluence in 2 well chamber slides coated with poly-D-lysine for the scratch wound assay and serum starved. 48 hrs after serum starvation, the monolayer of astrocytes is scratched with sterile 200 μl tips and washed twice with PBS to get rid of cell debris. Conditioned medium (+/−cytokines) is added to the wounded astrocytes. The microscopic images of the scratch is captured at a magnification of 10× right after scratch and considered as time point 0.24 hrs, 48 hrs or 72 hrs after scratch, the same region of scratch is imaged and fixed with methanol containing, 1 μg/ml of DAPI to monitor migration and proliferation of astrocytes.

In the case of `CCN(CC)C1CCN(c2cccc(-c3cnn4c(N)c(-c5cccc(Cl)c5)c(C)nc34)c2)CC1` [Compound 1, 6-(3-Chloro-phenyl)-3-[3-(4-diethylamino-piperidin-1-yl)-phenyl]-5-methyl-pyrazolo[1,5-a]pyrimidin-7-ylamine], the melting point (commonly the temperature, or range, at which the solid turns liquid) lay within 163 to 168 °C. Besides, at EphA4 [1], the “crossing of the blood brain barrier” value is listed as “cross the blood brain barrier” and the “EphA4 phosphorylation in vivo in mouse brain” value (“EphA4 phosphorylation in vivo” for short) is reported as “effectively block phosphorylation of EphA4 receptor in vivo”. Further, in series [2], the “overcoming neurite outgrowth inhibition” value is recorded as “able to overcome neurite outgrowth inhibition”. Besides, the “inhibition of EphA4 auto-phosphorylation (phospho-tyrosine Western blot)” value at EphA4 [3] was “inhibition of EphA4 auto-phosphorylation”. Compound `COc1ccc(-c2cnn3c(N)c(-c4cccc(Cl)c4)c(C)nc23)cc1OC` [Compound 3, 6-(3-Chloro-phenyl)-3-(3,4-dimethoxy-phenyl)-5-methyl-pyrazolo[1,5-a]pyrimidin-7-ylamine] showed a melting point of 223 to 226 °C. Turning to `Cc1nc2c(-c3cccc(N4CCN(CCO)CC4)c3)cnn2c(N)c1-c1ccc(F)c(Cl)c1` [Compound 4, 2-(4-{3-[7-Amino-6-(3-chloro-4-fluoro-phenyl)-5-methyl-pyrazolo[1,5-a]pyrimidin-3-yl]-phenyl}-piperazin-1-yl)-ethanol], the melting point fell in the range of 104 to 107 °C. In the case of `Cc1nc2c(-c3cccc(N4CCN(C5CCN(C)CC5)CC4)c3)cnn2c(N)c1-c1cccc(Cl)c1` [Compound 5, 6-(3-Chloro-phenyl)-5-methyl-3-{3-[4-(1-methyl-piperidin-4-yl)-piperazin-1-yl]-phenyl}-pyrazolo[1,5-a]pyrimidin-7-ylamine], the melting point fell in the range of 180 to 185 °C. Turning to `COc1ccc(-c2cnn3c(N)c(-c4cccc(Cl)c4)c(CN4CCNCC4)nc23)cc1OC` [Compound 6, 6-(3-Chloro-7-phenyl)-3-(3,4-dimethoxy-phenyl)-5-piperazin-1-ylmethyl-pyrazolo[1,5-a]pyrimidin-7-ylamine], in the series with astrocytes, the “astrocyte migration induced by cytokines (TGF-α, LIF, and IFN)” value is “block astrocyte migration”. Besides, at EphA4 [1], the “crossing of the blood brain barrier” value is listed as “cross the blood brain barrier” and the “EphA4 phosphorylation in vivo” value is given as “effectively block phosphorylation of EphA4 receptor in vivo”. In the case of `Cc1nc2c(-c3ccc(OCCN(C)C)cc3)cnn2c(N)c1-c1cccc(Cl)c1` [Compound 7, 6-(3-Chloro-phenyl)-3-[4-(2-dimethylamino-ethoxy)-phenyl]-5-methyl-1-pyrazolo[1,5-a]pyrimidin-7-ylamine], on EphA4 [1], the “crossing of the blood brain barrier” value is “cross the blood brain barrier” and the “EphA4 phosphorylation in vivo” value is “effectively block phosphorylation of EphA4 receptor in vivo”. `CN(C)c1ccc(-c2cnn3c(N)c(-c4ccc(NS(=O)(=O)c5cccc(Cl)c5Cl)cc4)cnc23)cc1` [Example 17, N-{4-[7-Amino-3-(4-dimethylamino-phenyl)-pyrazolo[1,5-a]pyrimidin-6-yl]-phenyl}-2,3-dichloro-benzenesulfonamide] came in with a melting point of 143 to 146 °C. For `CN(C)c1ccc(-c2cnn3c(N)c(-c4ccc(OS(=O)(=O)c5ccc(Cl)cc5)cc4)cnc23)cc1` [Example 18, 4-Chloro-benzenesulfonic acid 4-[7-amino-3-(4-dimethylamino-phenyl)-pyrazolo[1,5-a]pyrimidin-6-yl]-phenyl ester], the melting point is 186 to 191.88 °C. Regarding `CN1CCN(c2ccc(-c3cnn4c(N)c(-c5ccccc5Cl)cnc34)cc2)CC1` [Example 84, 6-(2-Chloro-phenyl)-3-[4-(4-methyl-piperazin-1-yl)-phenyl]-pyrazolo[1,5-a]-pyrimidin-7-ylamine], the melting point is 197 to 200 °C. The compound `CN1CCN(c2cccc(-c3cnn4c(N)c(-c5ccccc5Cl)cnc34)c2)CC1` [Example 85, 6-(2-Chloro-phenyl)-3-[3-(4-methyl-piperazin-1-yl)-phenyl]-pyrazolo[1,5-a]-pyrimidin-7-ylamine] came in with a melting point of 200 to 203 °C. Same read-out and setting: the same measure for `Cc1nc2c(-c3cccc(N4CCN(C)CC4)c3)cnn2c(N)c1-c1cccc(Br)c1` [Example 91, 6-(3-Bromo-phenyl)-5-methyl-3-[3-(4-methyl-piperazin-1-yl)-phenyl]-pyrazol-o[1,5-a]pyrimidin-7-ylamine]: 107 to 113 °C. `COc1ccc(-c2cnn3c(N)c(-c4cccc(Cl)c4)c(C)nc23)cc1` [Example 95, 6-(3-Chloro-phenyl)-3-(4-methoxy-phenyl)-5-methyl-pyrazolo[1,5-a]pyrimidin-7-ylamine] gave a melting point of 171 to 172 °C. For the compound `CN1CCN(c2cccc(-c3cnn4c(N)c(Cc5ccccc5)cnc34)c2)CC1` [Example 98, 6-Benzyl-3-[3-(4-methyl-piperazin-1-yl)-phenyl]-pyrazolo[1,5-a]pyrimidin-7-ylamine], the melting point lay in the range of 72 to 75 °C. Compound `COc1ccc(-c2cnn3c(N)c(-c4cccc(Cl)c4)c(CF)nc23)cc1OC` [Example 99, 6-(3-Chloro-phenyl)-3-(3,4-dimethoxy-phenyl)-5-fluoromethyl-pyrazolo[1,5-a]pyrimidin-7-ylamine] had a melting point of 228 to 230 °C. On the same count and under the same terms, the same measure for `COc1ccc(-c2cnn3c(N)c(-c4ccc(F)c(Cl)c4)c(C)nc23)cc1OC` [Example 101, 6-(3-Chloro-4-fluoro-phenyl)-3-(3,4-dimethoxy-phenyl)-5-methyl-pyrazolo[1,5-a]pyrimidin-7-ylamine]: 235 to 238 °C; for `COc1ccc(-c2cnn3c(N)c(-c4ccc(F)c(Cl)c4)c(C)nc23)cc1` [Example 102, 6-(3-Chloro-4-fluoro-phenyl)-3-(4-methoxy-phenyl)-5-methyl-pyrazolo[1,5-a]-pyrimidin-7-ylamine]: 224 to 227 °C; for `COc1ccc(-c2cnn3c(N)c(-c4ccc(F)cc4)c(C)nc23)cc1` [Example 103, 6-(4-Fluoro-phenyl)-3-(4-methoxy-phenyl)-5-methyl-pyrazolo[1,5-a]pyrimidin-7-ylamine]: 243 to 244 °C. `Cc1nc2c(-c3cccc(N4CCN(CCO)CC4)c3)cnn2c(N)c1-c1ccc(F)c(F)c1` [Example 108, 2-(4-{3-[7-Amino-6-(3,4-difluoro-phenyl)-5-methyl-pyrazolo[1,5-a]pyrimidin-3-yl]-phenyl}-piperazin-1-yl)-ethanol]: the melting point was in the range of 172 to 174 °C. As to `CCN(CC)C1CCN(c2cccc(-c3cnn4c(N)c(-c5ccc(F)cc5)c(C)nc34)c2)CC1` [Example 112, 3-[3-(4-Diethylamino-piperidin-1-yl)-phenyl]-6-(4-fluoro-phenyl)-5-methyl-pyrazolo[1,5-a]pyrimidin-7-ylamine], the melting point is 208 to 210 °C.
